Source: US9872928B2, “Diagnostic agent for therapeutic effect on cancer” (HAMAMATSU PHOTONICS K.K., priority 2013, dated 2018)

Assays:
mitochondria Complex-1 = assay: Evaluation of binding affinity with respect to mitochondria Complex-1 (displacement of [3H]dihydrorotenone tracer from mitochondrial fraction); set-up: species or system rat (brain) and bull (heart); conditions: FIG. 1
Procedure: A dose-response curve of each of a TEST substance and a positive substance was created, and a concentration (IC50 value) at which the TEST substance and the positive substance suppress 50% of bonding between a tracer and mitochondrial Complex-1 (receptor) and an absolute inhibition constant (Ki) were calculated. As the TEST substance, [^18F]BMS-747158-02 (2-tert-butyl-4-chloro-5-[4-(2-fluoro-ethoxymethyl)-benzyloxy]-2H-pyri dazin-3-one, hereinafter also referred to as “BMS”), BCPP-EF, BCPP-BF, BCPP-PF, BCPP-EM, and BMS-P were used. The details will be described below.
An animal tissue was weighed (wet weight), a homogenization buffer solution (10 mmol/L Tris-HCl buffer solution (pH, 7.40) of 250 mmol/L sucrose, 1 mmol/L succinic acid, and 0.2 mmol/L EDTA) was added in an amount twice the amount of the animal tissue, and the mixture was homogenized under ice cooling. Thereafter, the homogenized suspension solution was centrifuged (1200×g, 4° C., 20 minutes). The supernatant was collected and centrifuged (26000×g, 4° C., 15 minutes). […] The protein concentration of the mitochondrial fraction was measured using BCA Protein Assay Reagent (manufactured by Pierce Companies). […]
Measurement was performed according to the following order. Two samples were prepared for each concentration, and each sample was measured three times. […]

[1] = tested on: SCCVII cells tumor tissue; assay: Judgment of effect of cancer therapy using PET measurement in cancer-bearing mice after X-ray irradiation; assay type: in vivo, mouse
Procedure: When the tumor volume reached about 100 mm^3, a cancer therapy using irradiation with an X-ray was performed to a tumor site of a mouse at a dose ratio of 1.2 Gy/minute using an apparatus which can perform irradiation with an X-ray having an energy of 250 keV (Hitachi Power Solutions MBR-1520R-3). As conditions of irradiation with X-ray, four conditions of non-irradiation (0 Gy, control), 6 Gy, 15 Gy, and 30 Gy were set. Also after the irradiation treatment, the tumor volume was regularly measured according to the above method.
Two days and seven days after irradiation with X-ray, a mouse with a tumor tissue (cancer-bearing mouse) was anesthetized by isoflurane gas. Thereafter, four mice were fixed at one time in a gantry of an animal PET camera (HAMAMATSU SHR-38000). For absorption correction, transmission measurement was performed using a ^68Ge-^68Ga calibration-ray source for 15 minutes. Thereafter, about 5 MBq/0.2 mL of [^18F]BCPP-EF was administered into a tail vein of a mouse, and dynamic emission measurement was performed for 60 minutes. FIG. 3 illustrates a PET image showing an effect of the radiation therapy in the tumor tissue of a mouse.
After the PET measurement was finished, each of the mice was moved to a small animal X-CT (SHIMADZ Clairvivo CT) with a fixed stand while being anesthetized, and CT measurement was performed for ten minutes. A form image (X-CT image) obtained by the CT measurement was collected, a PET accumulated image 40 to 60 minutes after administration of [^18F]BCPP-EF was superimposed on the X-CT image, and a PET image of a cancer tissue was identified.
An interest region was set on the PET image of the cancer tissue, and a value normalized with a body weight of an individual and an administration radiation dose was used as an accumulation amount of [^18F]BCPP-EF in the cancer tissue. The results are illustrated in FIG. 4.

affinity with respect to mitochondria Complex-1 (mitochondria Complex-1; suggested from dose-response curve)	IC50 (concentration suppressing 50% of bonding between tracer and mitochondrial Complex-1), comparison in words (mitochondria Complex-1; tracer dihydrorotenone[2-isopropyl-3H(N)], 22° C., 30 minutes)	accumulation in the tumor tissue (PET) as the irradiation dose was increased ([1]; X-ray 0, 6, 15, 30 Gy, FIGS. 3 and 4)	accumulation in the tumor tissue (PET) ([1]; before the radiation therapy, tail vein administration)	accumulation in the tumor tissue (PET) ([1]; two days after irradiation with radiation, PET image 40 to 60 minutes after administration)	SMILES	increase in accumulation in proportion to the radiation dose, duration ([1]; seven days after irradiation with radiation, FIGS. 3 and 4)
high affinity	lowest IC50	–	–	–	CC(C)(C)n1ncc(OCc2ccc(OCCCCF)nc2)c(Cl)c1=O [BCPP-BF]	–
–	–	increase in accumulation	not observed	increased	CC(C)(C)n1ncc(OCc2ccc(OCCOCC[18F])nc2)c(Cl)c1=O [[^18F]BCPP-EF]	continued until seven days after irradiation
